We go through three molecules from patent US20090036410A1, “Structured Phospholipids” (BTG INTERNATIONAL LIMITED, priority 2004, published 2009).

Data set [1] deals with acute rat EAE. As to conditions: depending on dose; cited from earlier work.
The nature of data set [2]: Storage stability / handling of the isolated phospholipid. It is filed as physicochemical. An excerpt: Suitable diluents and carriers can be found in the literature in texts such as Remington's Pharmaceutical Sciences. One particular material investigated by the inventors has been PEG (polyethylene glycol) eg. PEG200. This can be used at amounts between 1 and 99% PEG to 99% to 1% by weight of active phospholipid, preferably 20 to 80% PEG to 80 to 20% of phospholipid and more preferably 40 to 60% PEG to 60 to 40% by weight of phospholipid.
The invention provides a first method of its preparation of compounds GGPc, DHGLADHGLAPc and AAPc in a one step process (scheme 5, method A) by reaction of sn-glycerophosphocholine cadmium complex with γ-linolenic, dihomo-γ-linolenic, or arachidonic anhydride (formed eg. from the n-6 acid and dicylohexylcarbodiimide). Purification of the crude product uses eg. copper sulfate washes to remove DMAP and column chromatography to take out other by-products. The first batch of product for the γ-linolenic product (44 g, 85% purity) was obtained as a yellow wax.
On a 7 g scale higher purity GGPc could be obtained by more rigorous chromatography. Furthermore freeze-drying a dioxan solution of this material gave a white solid. This solid was hygroscopic and gained weight and went to a foam on prolonged exposure to the atmosphere.

The test system of data set [3] is CREAE model MOG in C57BL mice. Kind of data set: CREAE model, MOG-induced, clinical EAE score. The format is in vivo.
Data set [4] concerns EAE. The note with it: guinea-pig; cited from earlier work.

With `CCCCC/C=C\C/C=C\C/C=C\CCCCC(=O)O` [γ-linolenic acid], the “protection in acute rat EAE” value in data set [1] is “fully protective”.

Turning to `CCCCC/C=C\C/C=C\C/C=C\CCCCC(=O)OC[C@H](COP(=O)([O-])OCC[N+](C)(C)C)OC(=O)CCCC/C=C\C/C=C\C/C=C\CCCCC` [GGPc, 1,2-Di(γ-linolenyl)-sn-glycerophosphocholine], the “purity after storage (deterioration)” value in data set [2] (over 6 months, first batch, initially 85% purity yellow wax, turned brown suggesting oxidation) turned out to be 70%. Besides, the “hygroscopicity of freeze-dried white solid” value in data set [2] (prolonged exposure to the atmosphere, gained weight and went to a foam) was “hygroscopic”. Further, in data set [3] (100 microL dose, p<0.050 compared to CCC (150 microL)), the “effect on EAE score compared to CCC (dose response curve)” value is on record as “significant effect”. In addition, the “protection / severity of CREAE” value in data set [3] (100 ul of 50% phospholipid in PEG200) is recorded as “protection/reduced severity”. Besides, the “efficacy in the CREAE model compared to the lipid GGG of PCT/GB2004/003524” value in data set [3] (MOG in C57BL mice, oral, initial results) is recorded as “superior in efficacy”. For the same molecule, the “protection in CREAE” value in data set [3] (dose 100 ul, oral) was “excellent protection”. The “shape of dose response curve” value in data set [3] (doses 25, 50, 100 and 200 microL) is “bell shaped curve”. Besides, the “effect on EAE score (dose response curve)” value in data set [3] (higher dose of 200microL) is recorded as “no effect”.

Turning to `CCCCC/C=C\C/C=C\CCCCCCCC(=O)O` [linoleic acid], the “effect on incidence and severity of EAE” value in data set [4] is reported as “partially suppresses”. Moreover, the “protection in acute rat EAE” value in data set [1] is listed as “dose-dependent action on the clinical severity but did not abolish it”.
